According to patent US20200017495A1, “NOVEL HETEROCYCLIC COMPOUNDS AND THEIR USE IN PREVENTING OR TREATING BACTERIAL INFECTIONS” (priority 2017, published 2020):

Tested on: Klebsiella pneumoniae (KPN) isolates
Assay: MIC of compounds alone and combined with antibacterials, broth microdilution (CLSI)
Assay type: cell-based
Summary of the method: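 Broth microdilution in cation-adjusted Mueller-Hinton broth, inoculum 5.10^5 CFU/mL, 16-20 h at 35° C in ambient air, on genotyped isolates. Compound MIC, alone or with an antibacterial, taken visually as lowest concentration preventing growth; antibacterial MIC determined at each compound concentration.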

Question: Which results are given for `CC1(C)S[C@@H]2[C@H](NC(=O)[C@H](N)c3ccc(O)cc3)C(=O)N2[C@H]1C(=O)O` [AMX, Amoxicillin]?
Answer: MIC ATB in combination (KPN ARA, AF2 @ 8 μg/mL): <=0.25 μg/mL; MIC ATB in combination (KPN BAA-1898, CLA @ 4 μg/mL): >512 µg/mL; MIC ATB in combination (KPN LIB, AF2 @ 8 μg/mL): <=0.25 μg/mL; MIC ATB in combination (KPN LIB, CLA @ 4 μg/mL): >512 µg/mL; MIC ATB in combination (KPN UFR22_O, AF2 @ 8 μg/mL): 0.5 µg/mL; MIC ATB in combination (KPN UFR23, AF2 @ 8 μg/mL): 4 µg/mL; MIC ATB in combination (KPN UFR24, AF2 @ 8 μg/mL): 32 µg/mL; MIC ATB in combination (KPN UFR25, AF2 @ 8 μg/mL): <0.25 µg/mL; MIC ATB in combination (KPN UFR28, AF2 @ 8 μg/mL): <=0.25 μg/mL; MIC ATB in combination (KPN UFR33, AF2 @ 8 μg/mL): 8 µg/mL; MIC ATB in combination (KPN UFR43, AF2 @ 8 μg/mL): <0.25 µg/mL; MIC ATB in combination (KPN UFR53, AF2 @ 8 μg/mL): <0.25 µg/mL; MIC ATB in combination (KPN UFR77, AF2 @ 8 μg/mL): <0.25 µg/mL; MIC ATB in combination (KPN UFR80, AF2 @ 8 μg/mL): 64 µg/mL; MIC ATB in combination (KPN UFR218, CLA @ 4 μg/mL): 32 µg/mL; MIC (strain KPN 6299, genotype TEM-1, SHV-11, OXA-163): >1024 µg/mL; MIC (strain KPN 110376, genotype TEM-1, SHV-1, CTX-M-15, OXA-1, OXA-48): >256 µg/mL; MIC (strain KPN 121206, genotype SHV-1, NDM-1): >256 µg/mL; MIC (strain KPN 131119, genotype TEM-1, SHV-11, CTX-M-15, OXA-1, OXA-48): >256 µg/mL; MIC (strain KPN 140347, genotype CTX-M-15, NDM-1, antibiotic alone): >128 µg/mL; MIC (strain KPN 140513, genotype TEM-1, SHV-11, CTX-M-15, KPC-3): >256 µg/mL; MIC (strain KPN 160143, genotype TEM-1, SHV-1, CTX-M-15, KPC-2, OXA-1): >256 µg/mL; MIC (strain KPN 190128, genotype TEM-1, SHV-32, CTX-M-15, OXA-1): >256 µg/mL; MIC (strain KPN 190270, genotype TEM-1, SHV-76, CTX-M-15, OXA-1): >256 µg/mL; MIC (strain KPN 190425, genotype TEM-1, SHV-1, CTX-M-15, OXA-1): >256 µg/mL; MIC (strain KPN 190551, genotype TEM-1, SHV-1, CTX-M-15, OXA-1): >256 µg/mL; MIC (strain KPN 200047, genotype TEM-1, SHV-32, CTX-M-15, OXA-1): >256 µg/mL; MIC (strain KPN 200327, genotype TEM-1, SHV-1, CTX-M-15, OXA-1): >256 µg/mL; MIC (strain KPN 260251, genotype TEM-1, SHV-11, SHV-12, CTX-M-15, KPC-2): >256 µg/mL; MIC (strain KPN 260252, genotype TEM-1, SHV-11, KPC-3): >256 µg/mL; MIC (strain KPN 260376, genotype SHV-1, SHV-49, OXA-1): >256 µg/mL; MIC (strain KPN 270077, genotype TEM-1, SHV-1, CTX-M-15): >256 µg/mL; MIC (strain KPN 700603, genotype SHV-18, OXA-2): >256 µg/mL; MIC (strain KPN ARA, genotype TEM-1, SHV-11, CTX-M-15, OXA-1, OXA-48): >256 µg/mL; MIC (strain KPN BAA-1898, genotype TEM-1, SHV-11, SHV-12, KPC-2): >1024 µg/mL; MIC (strain KPN LIB, genotype SHV-11, OXA-48): >256 µg/mL; MIC (strain KPN UFR22_O, genotype TEM-1, SHV-1, OXA-48): >256 µg/mL; MIC (strain KPN UFR23, genotype TEM-1, SHV-1, OXA-48): >256 µg/mL; MIC (strain KPN UFR24, genotype TEM-1, SHV-2, SHV-11, OXA-1, OXA-48, OXA-47): >256 µg/mL; MIC (strain KPN UFR25, genotype TEM-1, SHV-11, CTX-M-15, OXA-162): >256 µg/mL; MIC (strain KPN UFR27, genotype TEM-1, SHV-28, CTX-M-15, OXA-204): >256 µg/mL; MIC (strain KPN UFR28, genotype TEM-1, SHV-1, CTX-M-15, OXA-1, OXA-232): >256 µg/mL; MIC (strain KPN UFR33, genotype TEM-2, SHV-12, CTX-M-15, OXA-1, OXA-10): >256 µg/mL; MIC (strain KPN UFR42, genotype SHV-2, CTX-M-15 OXA-1, OXA-181, NDM-1): >256 µg/mL; MIC (strain KPN UFR43, genotype SHV-11, CTX-M-15, CMY-2, OXA-1, NDM-1): >256 µg/mL; MIC (strain KPN UFR46, genotype TEM-1, SHV-12, CTX-M-15, OXA-9, VIM-1): >256 µg/mL; MIC (strain KPN UFR53, genotype TEM-1, IMP-1): >256 µg/mL; MIC (strain KPN UFR65, genotype TEM-1, SHV-11, KPC-2): >256 µg/mL; MIC (strain KPN UFR66, genotype TEM-1, SHV-11, CTX-M-15, KPC-2): >256 µg/mL; MIC (strain KPN UFR67, genotype TEM-1, SHV-11, KPC-3): >256 µg/mL; MIC (strain KPN UFR68, genotype TEM-1, SHV-11, CTX-M-15, KPC-3): >1024 µg/mL; MIC (strain KPN UFR76, genotype TEM-155, SHV-11, ACT-1, OXA-2): >256 µg/mL; MIC (strain KPN UFR77, genotype CMY-2): >256 µg/mL; MIC (strain KPN UFR78, genotype TEM-1, SHV-1, CTX-M-15, CMY-2, OXA-1, OXA-48): >256 µg/mL; MIC (strain KPN UFR79, genotype DHA-1, OXA-1): >256 µg/mL; MIC (strain KPN UFR80, genotype SHV-11, DHA-1, OXA-1): >256 µg/mL; MIC (strain KPN UFR81, genotype TEM-1, SHV-1, DHA-1, OXA-48): >256 µg/mL; MIC (strain KPN UFR162, genotype SHV-28, TEM-1, CTX-M-15, OXA-181, OXA-181, NDM-1, antibiotic alone): >128 µg/mL; MIC (strain KPN UFR163, genotype TEM-1, SHV-1, CTX-M-15, OXA-232, OXA-9, NDM-1, qnrB1, qepA, RmtB, antibiotic alone): >128 µg/mL; MIC (strain KPN UFR164, genotype SHV-11, CTX-M-15, OXA-1, OXA-181, NDM-1, antibiotic alone): >128 µg/mL; MIC (strain KPN UFR165, genotype TEM-1, SHV-11, CTX-M-15, OXA-1, OXA-181, NDM-1, antibiotic alone): >128 µg/mL; MIC (strain KPN UFR166, genotype TEM-1, TEM-1, CTX-M-15, OXA-181, OXA-9, NDM-1, antibiotic alone): >128 µg/mL; MIC (strain KPN UFR167, genotype TEM-1, SHV-12, CTX-M-15, OXA-9, NDM-1, antibiotic alone): >128 µg/mL; MIC (strain KPN UFR168, genotype SHV-2, CTX-M-15, OXA-1, OXA-181, NDM-1, ArmA, antibiotic alone): >128 µg/mL; MIC (strain KPN UFR169, genotype TEM-1, SHV-28, CTX-M-15, CMY-4, OXA-1, NDM-1, antibiotic alone): >128 µg/mL; MIC (strain KPN UFR170, genotype TEM-1, SHV-28, CTX-M-15, CMY-6, OXA-1, OXA-9, NDM-1, antibiotic alone): >128 µg/mL; MIC (strain KPN UFR171, genotype TEM-1, SHV-28, CTX-M-15, OXA-1, OXA-10, NDM-1, RmtA, antibiotic alone): >128 µg/mL; MIC (strain KPN UFR172, genotype SHV-38, CMY-16, OXA-10, NDM-1, antibiotic alone): >128 µg/mL; MIC (strain KPN UFR215, genotype SHV-27, CTX-M-15): >128 µg/mL; MIC (strain KPN UFR216, genotype SHV-28, CTX-M-15): >128 µg/mL; MIC (strain KPN UFR217, genotype TEM-1, SHV-1, CTX-M-15): >128 µg/mL; MIC (strain KPN UFR219, genotype SHV-12, CTX-M-15): >128 µg/mL; MIC (strain KPN UFR220, genotype TEM-1, SHV-12, DHA-1): >128 µg/mL; MIC (strain KPN UFR221, genotype TEM-1, SHV-11, CTX-M-14, DHA-1): >128 µg/mL; MIC (strain KPN UFR229O, genotype SHV-12, VIM-1, antibiotic alone): >128 µg/mL
